The results in this text go back to patent publication US20250353873A1, “COMPOUNDS AND METHODS FOR MODULATING APOE EXPRESSION” (Ionis Pharmaceuticals, Inc., priority 2024, published 2025).

The test system of data set [1] is human APOE RNA. Nature of the data set: Dose-dependent reduction of human APOE RNA in HepG2 cells, electroporation, 20,000 cells per well, average of GAPDH- and PPIA-normalized results (Example 4, Table 12). The class given is cell-based. As to conditions: HepG2, 20,000 cells per well; for IC50: approximately 24 hours. The method, then:
HepG2 cells plated at a density of 20,000 cells per well were treated by electroporation with various concentrations of modified oligonucleotide as specified in the tables below. […] APOE RNA levels were measured using the human primer probe set RTS3073 (described herein above). APOE RNA levels were normalized to human GAPDH, and human PPIA. Human GAPDH was amplified using human primer probe set RTS104 (described herein above). Human PPIA was amplified using human primer probe set mk_cycloA_2nd (described herein above) The average of the GAPDH-normalized results and the PPIA-normalized results are presented in the table below as percent APOE RNA, relative to the amount of APOE RNA in untreated control cells (% UTC). The half maximal inhibitory concentration (IC50) of each modified oligonucleotide was calculated in GraphPad Prism 10 (GraphPad Software, San Diego, CA) and is also presented in the table below.

Data set [2] deals with human APOE RNA. Briefly: Potency (dose response, ED50) in APOE C57BL/6NTac-Apoeem7250 knock-in mice, 4 weeks (Example 14). The format is in vivo. The settings on record: for ED 50 (μg) Cortex / ED 50 (μg) Spinal Cord: single ICV bolus, GraphPad Prism 10. As for the experimental part:
(§1) Modified oligonucleotides described above were tested in the APOE C57BL/6NTac-Apoeem7250 knock-in mouse model described above.
APOE C57BL/6NTac-Apoeem7250 knock-in mice were divided into groups of 3-4 mice each. A group of 3-4 mice received a single ICV bolus with PBS as a negative control.
Four weeks post treatment, mice were sacrificed, and RNA was extracted from cortical brain tissue and spinal cord for quantitative real-time RT-PCR analysis of RNA expression of […] using human primer probe set RTS3073 (described herein above). APOE RNA levels were normalized to mouse Ppia. Mouse Ppia was amplified using primer probe set m_cyclo24 (described herein above). Results are presented as percent human APOE RNA relative to the amount of APOE RNA in PBS treated animals, (% control). N.C. indicates values that were not calculated. Each experiment is identified in separate tables below.
(§2) The half maximal effective dose (ED50) of each modified oligonucleotide was calculated using GraphPad Prism 10 software (GraphPad Software, San Diego, CA).

For data set [3], the system named is human APOE RNA. Briefly: Potency (dose response, ED50) in APOE C57BL/6NTac-Apoeem7250 knock-in mice, 8 weeks (Example 15). The class given is in vivo. The method, then:
as §1
APOE C57BL/6NTac-Apoeem7250 knock-in mice were divided into groups of 3-4 mice each. A group of 4 mice received a single ICV bolus with PBS as a negative control.
Eight weeks post treatment, mice were sacrificed, and RNA was extracted from cortical brain tissue and spinal cord for quantitative real-time RT-PCR analysis of RNA expression of […] using human primer probe set RTS3073 (described herein above). APOE RNA levels were normalized to mouse Ppia. Mouse Ppia was amplified using primer probe set m_cyclo24 (described herein above). Results are presented as percent human APOE RNA relative to the amount of APOE RNA in PBS treated animals, (% control). N.C. indicates values that were not calculated.
as §2

Strand notation (5' to 3'): a small letter for the sugar, then the base; units joined by * are phosphorothioate-linked, units joined directly phosphodiester-linked; [ ] holds rarer units or linkages, { } end groups; capitals alone tell only the bases. [ms] = mesyl phosphoramidate linkage; e = 2'-O-(2-methoxyethyl) (MOE); k = constrained ethyl (cEt); [5mC] = 5-methylcytosine; d = 2'-deoxy (DNA)

Broadly, the IC50 is the concentration that gives 50% inhibition. Read a high IC50 as weaker potency in that assay. For the substance “1778130: modified oligonucleotide complementary to human APOE RNA (eA*e[5mC]eTeTeG*kG*dT*dG[ms]dA[ms]dA*dT*d[5mC]*dT*dT*dT*dA[ms]kTkT*eA*eA; antisense) [compound 1778130]”, the “APOE RNA (% UTC)” value in the data set on human APOE RNA [1] (5 nM) was determined as 99 % UTC; with human APOE RNA [1] (13 nM) it was 100 % UTC; in the data set with human APOE RNA [1] (33 nM), 85 % UTC; in the data set with human APOE RNA [1] (82 nM), 72 % UTC; in the data set with human APOE RNA [1] (205 nM), 52 % UTC; with human APOE RNA [1] (512 nM), 45 % UTC. The “APOE RNA (% UTC)” value in the data set with human APOE RNA [1] (1,280 nM) was 20 % UTC; in the data set on human APOE RNA [1] (3,200 nM), 12 % UTC; with human APOE RNA [1] (8,000 nM), 18 % UTC; with human APOE RNA [1] (20,000 nM), 9 % UTC. Besides, the concentration for half-maximal inhibition (IC50) with human APOE RNA [1] turned out to be 310 nM. The “APOE RNA (% control) Cortex” value in the data set with human APOE RNA [2] (ICV dose 10 μg) was found to be 123 % control; with human APOE RNA [2] (ICV dose 30 μg), 100 % control; in the data set on human APOE RNA [2] (ICV dose 100 μg) it was 69 % control; in the data set with human APOE RNA [2] (ICV dose 300 μg) it was 74 % control; with human APOE RNA [2] (ICV dose 700 μg), 37 % control. In the data set on human APOE RNA [2], the “ED 50 (μg) Cortex” value is 502.4 µg. In addition, the “APOE RNA (% control) Spinal Cord” value worked out at 88 % control in the data set on human APOE RNA [2] (ICV dose 10 μg); 35 % control in the data set on human APOE RNA [2] (ICV dose 30 μg); 27 % control in the data set with human APOE RNA [2] (ICV dose 100 μg); 22 % control in the data set on human APOE RNA [2] (ICV dose 300 μg); 32 % control in the data set with human APOE RNA [2] (ICV dose 700 μg). The “ED 50 (μg) Spinal Cord” value in the data set on human APOE RNA [2] came out at 35.9 µg.
Take “1785599: modified oligonucleotide complementary to human APOE RNA (k[5mC]*kT*kT*dG[ms]dG[ms]dT[ms]dG[ms]dA[ms]dA[ms]dT[ms]d[5mC]*dT*dT*dT*dA*dT*kT*kA*dA[ms]kA; antisense) [compound 1785599]”: the “APOE RNA (% control) Cortex” value worked out at 94 % control in the data set with human APOE RNA [3] (cortex, ICV dose 10 μg); 72 % control in the data set on human APOE RNA [3] (cortex, ICV dose 30 μg); 56 % control with human APOE RNA [3] (cortex, ICV dose 100 μg); 37 % control in the data set on human APOE RNA [3] (cortex, ICV dose 300 μg); 25 % control in the data set on human APOE RNA [3] (cortex, ICV dose 700 μg). Moreover, the “ED 50 (μg) Cortex” value with human APOE RNA [3] (cortex, single ICV bolus, GraphPad Prism 10) came to 143.3 µg. Further, the “APOE RNA (% control) Spinal Cord” value with human APOE RNA [3] (spinal cord, ICV dose 10 μg) was 54 % control; in the data set with human APOE RNA [3] (spinal cord, ICV dose 30 μg) it was 38 % control; in the data set on human APOE RNA [3] (spinal cord, ICV dose 100 μg) it was 16 % control; in the data set with human APOE RNA [3] (spinal cord, ICV dose 300 μg), 13 % control; in the data set with human APOE RNA [3] (spinal cord, ICV dose 700 μg), 12 % control. Also, the “ED 50 (μg) Spinal Cord” value in the data set with human APOE RNA [3] (spinal cord, single ICV bolus, GraphPad Prism 10) turned out to be 12.18 µg. Further, the “APOE RNA (% UTC)” value in the data set on human APOE RNA [1] (5 nM) was found to be 100 % UTC; in the data set with human APOE RNA [1] (13 nM), 106 % UTC; in the data set with human APOE RNA [1] (33 nM), 93 % UTC; in the data set on human APOE RNA [1] (82 nM), 81 % UTC; with human APOE RNA [1] (205 nM) it was 71 % UTC; in the data set on human APOE RNA [1] (512 nM) it was 43 % UTC. Also, the “APOE RNA (% UTC)” value in the data set with human APOE RNA [1] (1,280 nM) came out at 32 % UTC; with human APOE RNA [1] (3,200 nM), 18 % UTC; with human APOE RNA [1] (8,000 nM), 10 % UTC; with human APOE RNA [1] (20,000 nM), 15 % UTC. This substance also gave an IC50 in the data set on human APOE RNA [1] of 510 nM.
Turning to “1757575 (eA*e[5mC]eTeT*kG*kG*dT*dG[ms]dA[ms]dA[ms]dT*d[5mC]*dT*dT*dT*dA[ms]kT*eT*eA*eA; antisense) [Compound 1757575]”, the “APOE RNA (% UTC)” value stood at 92 % UTC with human APOE RNA [1] (5 nM); 96 % UTC in the data set with human APOE RNA [1] (13 nM); 93 % UTC in the data set on human APOE RNA [1] (33 nM); 81 % UTC in the data set with human APOE RNA [1] (82 nM); 72 % UTC in the data set on human APOE RNA [1] (205 nM); 47 % UTC in the data set on human APOE RNA [1] (512 nM). The “APOE RNA (% UTC)” value with human APOE RNA [1] (1,280 nM) is given as 34 % UTC; in the data set on human APOE RNA [1] (3,200 nM) it was 27 % UTC; in the data set on human APOE RNA [1] (8,000 nM) it was 10 % UTC; with human APOE RNA [1] (20,000 nM), 5 % UTC. Further, in the data set with human APOE RNA [1], the IC50 is 570 nM. For the same substance, the “APOE RNA (% control) Cortex” value with human APOE RNA [2] (ICV dose 10 μg) came out at 100 % control; in the data set with human APOE RNA [2] (ICV dose 30 μg), 82 % control; in the data set on human APOE RNA [2] (ICV dose 100 μg) it was 88 % control; in the data set with human APOE RNA [2] (ICV dose 300 μg), 51 % control; in the data set with human APOE RNA [2] (ICV dose 700 μg) it was 30 % control. In addition, the “ED 50 (μg) Cortex” value in the data set on human APOE RNA [2] came out at 337.5 µg. Moreover, the “APOE RNA (% control) Spinal Cord” value is 82 % control in the data set on human APOE RNA [2] (ICV dose 10 μg); 48 % control in the data set on human APOE RNA [2] (ICV dose 30 μg); 40 % control with human APOE RNA [2] (ICV dose 100 μg); 28 % control in the data set with human APOE RNA [2] (ICV dose 300 μg); 51 % control in the data set on human APOE RNA [2] (ICV dose 700 μg). Moreover, the “ED 50 (μg) Spinal Cord” value in the data set with human APOE RNA [2] is 84.6 µg.
